In patent US9682995B2, “Amino-substituted isothiazoles” (BAYER PHARMA AKTIENGESELLSCHAFT, priority 2013, dated 2017) one finds IC50 data, which are given here for 11 compounds.

Structures are written as SMILES.

One assay has as its target CDK2/CycE (Homo sapiens (Human), UniProt P24941). As to the kind of experiment: CDK2/CycE kinase assay (TR-FRET). The class given is biochemical. Particulars: 10 μM ATP; read-out: CDK2 avg (IC50 [mol/l]). The method in brief: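 GST-tagged human CDK2 and GST-CycE from Sf9 cells (~130 ng/ml) were preincubated with compound for 15 min at 22 °C. Reaction with 10 μM ATP and 0.75 μM biotinylated peptide (final) ran 25 min at 22 °C, pH 8.0. Phospho-peptide was read by TR-FRET (665/620 nm ratio, anti-pRB antibody, Eu donor) and normalised to no-enzyme and no-inhibitor controls.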
(TR-FRET usually uses a lanthanide donor and a delayed reading to cut background.)

Another assay deals with human Bub1 (Homo sapiens (Human), UniProt O43683). As to the kind of experiment: Bub1 kinase assay (TR-FRET). The class given is biochemical. The conditions noted are these: 10 μM ATP; read-out: Bub1 avg (IC50 [mol/l]). In outline:
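His6-tagged human Bub1 catalytic domain (aa 704-1085, insect-cell expressed, ~200 ng/ml) preincubated with compound 15 min, then reacted 60 min at 22 °C with 10 μM ATP and 1 μM biotinylated peptide (final) in pH 7.5 Tris buffer. Phosphopeptide detected by TR-FRET 665/620 ratio, normalised to no-inhibitor and no-enzyme controls.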

Sequence of human Bub1 (O43683 704-1085): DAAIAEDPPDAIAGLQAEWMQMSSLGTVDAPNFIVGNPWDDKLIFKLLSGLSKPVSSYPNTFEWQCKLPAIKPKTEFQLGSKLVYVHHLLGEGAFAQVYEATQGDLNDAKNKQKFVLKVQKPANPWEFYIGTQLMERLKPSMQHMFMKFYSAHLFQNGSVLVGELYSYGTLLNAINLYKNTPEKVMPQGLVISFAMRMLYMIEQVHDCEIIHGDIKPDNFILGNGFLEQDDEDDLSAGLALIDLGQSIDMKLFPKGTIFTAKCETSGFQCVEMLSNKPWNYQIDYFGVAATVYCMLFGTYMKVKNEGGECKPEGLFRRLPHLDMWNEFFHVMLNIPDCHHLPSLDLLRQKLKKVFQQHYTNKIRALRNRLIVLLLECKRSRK

On to `COc1ccc(NC(=O)c2c(C)nsc2Nc2cnc(C(F)(F)F)cn2)cn1` [Example 85, N-(6-methoxypyridin-3-yl)-3-methyl-5-{[5-(trifluoromethyl)pyrazin-2-yl]amino}-1,2-thiazole-4-carboxamide], for which the IC50 on CDK2/CycE and at human Bub1 was > 20 µM each time.

`CCc1ccccc1NC(=O)c1c(C)nsc1Nc1cnc2cc(Cl)ccc2n1` [Example 86, 5-[(6-Chloroquinoxalin-2-yl)amino]-N-(2-ethylphenyl)-3-methyl-1,2-thiazole-4-carboxamide]: the IC50 at CDK2/CycE and on human Bub1 was > 20 µM each time.

Consider `COc1ccc2nc(Nc3snc(C)c3C(=O)Nc3ccc(OC)nc3)sc2c1` [Example 87, 5-[(6-Methoxy-1,3-benzothiazol-2-yl)amino]-N-(6-methoxypyridin-3-yl)-3-methyl-1,2-thiazole-4-carboxamide], for which the figures for the IC50 at CDK2/CycE and on human Bub1 were > 20 µM and 11 µM, respectively.

Consider `COc1ccc(NC(=O)c2c(C)nsc2Nc2nc3ccc(F)cc3s2)cn1` [Example 88, 5-[(6-Fluoro-1,3-benzothiazol-2-yl)amino]-N-(6-methoxypyridin-3-yl)-3-methyl-1,2-thiazole-4-carboxamide], for which the IC50 was > 20 µM at CDK2/CycE and 17 µM on human Bub1.

Regarding `COc1ccc(NC(=O)c2c(C)nsc2Nc2nc3cccnc3s2)cn1` [Example 89, N-(6-Methoxypyridin-3-yl)-3-methyl-5-([1,3]thiazolo[5,4-b]pyridin-2-ylamino)-1,2-thiazole-4-carboxamide], the IC50 was > 20 µM on CDK2/CycE and 0.21 µM on human Bub1.

In the case of `COc1ccc(NC(=O)c2c(C)nsc2Nc2nc3ccc(C)cc3s2)cn1` [Example 90, N-(6-Methoxypyridin-3-yl)-3-methyl-5-[(6-methyl-1,3-benzothiazol-2-yl)amino]-1,2-thiazole-4-carboxamide], the IC50 at CDK2/CycE and at human Bub1 was > 20 µM each time.

With `CCc1ccccc1NC(=O)c1c(C)nsc1Nc1nc(C(=O)OC)co1` [Example 91, Methyl 2-({4-[(2-ethylphenyl)carbamoyl]-3-methyl-1,2-thiazol-5-yl}amino)-1,3-oxazole-4-carboxylate], the IC50 at CDK2/CycE and on human Bub1 was > 20 µM each time.

For `CCOC(=O)c1cnc(Nc2snc(C)c2C(=O)Nc2ccccc2CC)s1` [Example 92, Ethyl 2-({4-[(2-ethylphenyl)-carbamoyl]-3-methyl-1,2-thiazol-5-yl}amino)-1,3-thiazole-5-carboxylate], the IC50 at CDK2/CycE and on human Bub1 was > 20 µM each time.

As for `COc1ccc(NC(=O)c2c(C)nsc2Nc2ncc(C(=O)N3CCOCC3)s2)cc1F` [Example 93, N-(3-Fluoro-4-methoxyphenyl)-3-methyl-5-{[5-(morpholin-4-ylcarbonyl)-1,3-thiazol-2-yl]amino}-1,2-thiazole-4-carboxamide], the IC50 at CDK2/CycE and at human Bub1 was > 20 µM in each case.

`COc1ccc(NC(=O)c2c(C)nsc2Nc2cnc3ccccc3n2)cn1` [Example 94, N-(6-Methoxypyridin-3-yl)-3-methyl-5-(quinoxalin-2-ylamino)-1,2-thiazole-4-carboxamide]: the IC50 on CDK2/CycE and at human Bub1 was > 20 µM each time.

`CCOC(=O)c1sc(Nc2snc(C)c2C(=O)Nc2ccc(Cl)c(F)c2)nc1C` [Example 95, Ethyl 2-({4-[(4-chloro-3-fluoro-phenyl)carbamoyl]-3-methyl-1,2-thiazol-5-yl}amino)-4-methyl-1,3-thiazole-5-carboxylate]: the IC50 on CDK2/CycE and at human Bub1 was > 20 µM in each case.
